Data reported in patent publication US12599137B2, “Composition for the drying of Tillandsia sp” (priority 2021, dated 2026).

System: Tillandsia sp
Experiment: Sampler of 49 cells, each with one specimen of each Tillandsia species, photographic follow-up every 5 days for 30 days
Assay type: in vivo, Tillandsia aeranthos and Tillandsia recurvata
From the text: Next, we proceeded to form a sampler consisting of a base on which a series of wooden slats separated at parallel intervals were placed, to which perpendicular slats were crossed, achieving a plurality of cells for a total of 49 flat cells. One specimen of Tillandsia aeranthos and one of Tillandsia recurvata were placed inside each cell. Each box was designated with a sequential number from No. 1 to No. 49 and a photographic follow-up was taken every 5 days for a total of 30 days.

| SMILES | dehydration result of Tillandsia sp, summary in words (conclusions on sampler box tests) | optimum concentration of the active ingredient in water (from Examples 3 to 7, FIG. 1) [g/mL] |
| --- | --- | --- |
| Cc1c(C(=O)O)c(O)cc2c1C(=O)c1c(O)c([C@@H]3O[C@H](CO)[C@@H](O)[C@H](O)[C@H]3O)c(O)c(O)c1C2=O [carminic acid] | does not dehydrate |  |
| O=C([O-])O.[Na+] [sodium bicarbonate] |  | 0.07 |
